# Reference: patent US20180256673A1, “METHODS FOR TREATING FUNGAL INFECTIONS” (priority 2015, published 2018)
# What was measured:
# [1] = test system: azole-resistant Candida albicans R357 strain; test: microbe, parasite or virus in culture; assay type: cell-based; conditions: for MIC: Candida albicans
# [2] = test system: C. parapsilosis CP02, CP01, MMX 7370; test: Time-kill assay in vagina-simulative medium pH 4.0 (Table 19); assay type: cell-based, Candida parapsilosis; conditions: C. parapsilosis CP02 (FLU S), VSM pH 4.0
# [3] = test system: C. albicans ATCC 44858, DPL001, R357; test: Time-kill assay in vagina-simulative medium pH 4.0 (Table 16); assay type: cell-based, Candida albicans; conditions: ATCC 44858 (FLU S)
# [4] = test system: C. tropicalis CTO2, MMX 7255, MMX 7525; test: Time-kill assay in vagina-simulative medium pH 4.0 (Table 18); assay type: cell-based, Candida tropicalis; conditions: C. tropicalis CT02 (FLU S), VSM pH 4.0
# [5] = test system: C. glabrata CG01, ATCC 200918, MMX 7070; test: Time-kill assay in vagina-simulative medium pH 4.0 (Table 17); assay type: cell-based, Candida glabrata; conditions: C. glabrata CG01 (FLU S), VSM pH 4.0
smiles,measurement,setting,value
CC[C@@H]([C@H](C)O)n1ncn(-c2ccc(N3CCN(c4ccc(OC[C@@H]5CO[C@@](Cn6cncn6)(c6ccc(F)cc6F)C5)cc4)CC3)cc2)c1=O [Posaconazole],MIC,[1],> 64 mg/L
"CC(C)N1CCN(c2ccc(OCC3COC(Cn4cncn4)(c4ccc(Cl)cc4Cl)O3)cc2)CC1 (stereo not drawn) [TCZ, terconazole]",log-fold changes in CFU,"[2]; 24 h, 2 μg/mL",0.21 log-fold
same,log-fold changes in CFU,"[2]; 24 h, 8 μg/mL",−0.79 log-fold
same,log-fold changes in CFU,"[2]; 24 h, 32 μg/mL",−0.89 log-fold
same,log-fold changes in CFU,"[2]; 24 h, 128 μg/mL",−0.95 log-fold
same,log-fold changes in CFU,"[2]; 48 h, 2 μg/mL",1.89 log-fold
same,log-fold changes in CFU,"[2]; 48 h, 8 μg/mL",−0.64 log-fold
same,log-fold changes in CFU,"[2]; 48 h, 32 μg/mL",−2.48 log-fold
same,log-fold changes in CFU,"[2]; 48 h, 128 μg/mL",−2.65 log-fold
same,log-fold changes in CFU,"[2]; 72 h, 2 μg/mL",2.00 log-fold
same,log-fold changes in CFU,"[2]; 72 h, 8 μg/mL",−0.63 log-fold
same,log-fold changes in CFU,"[2]; 72 h, 32 μg/mL",−2.78 log-fold
same,log-fold changes in CFU,"[2]; 72 h, 128 μg/mL",−2.95 log-fold
same,log-fold change in CFU,"[3]; 24 h, 2 μg/mL",0.33 log-fold
same,log-fold change in CFU,"[3]; 24 h, 8 μg/mL",0.33 log-fold
same,log-fold change in CFU,"[3]; 24 h, 32 μg/mL",−1.16 log-fold
same,log-fold change in CFU,"[3]; 24 h, 128 μg/mL",−1.41 log-fold
same,log-fold change in CFU,"[3]; 48 h, 2 μg/mL",2.00 log-fold
same,log-fold change in CFU,"[3]; 48 h, 8 μg/mL",1.38 log-fold
same,log-fold change in CFU,"[3]; 48 h, 32 μg/mL",−1.07 log-fold
same,log-fold change in CFU,"[3]; 48 h, 128 μg/mL",−1.64 log-fold
same,log-fold change in CFU,"[3]; 72 h, 2 μg/mL",2.52 log-fold
same,log-fold change in CFU,"[3]; 72 h, 8 μg/mL",2.27 log-fold
same,log-fold change in CFU,"[3]; 72 h, 32 μg/mL",−0.41 log-fold
same,log-fold change in CFU,"[3]; 72 h, 128 μg/mL",−0.81 log-fold
same,log-fold changes in CFU,"[4]; 24 h, 2 μg/mL",2.39 log-fold
same,log-fold changes in CFU,"[4]; 24 h, 8 μg/mL",2.33 log-fold
same,log-fold changes in CFU,"[4]; 24 h, 32 μg/mL",0.00 log-fold
same,log-fold changes in CFU,"[4]; 24 h, 128 μg/mL",−1.00 log-fold
same,log-fold changes in CFU,"[4]; 48 h, 2 μg/mL",2.57 log-fold
same,log-fold changes in CFU,"[4]; 48 h, 8 μg/mL",2.33 log-fold
same,log-fold changes in CFU,"[4]; 48 h, 32 μg/mL",0.23 log-fold
same,log-fold changes in CFU,"[4]; 48 h, 128 μg/mL",−1.00 log-fold
same,log-fold changes in CFU,"[4]; 72 h, 2 μg/mL",2.65 log-fold
same,log-fold changes in CFU,"[4]; 72 h, 8 μg/mL",2.52 log-fold
same,log-fold changes in CFU,"[4]; 72 h, 32 μg/mL",0.27 log-fold
same,log-fold changes in CFU,"[4]; 72 h, 128 μg/mL",−0.94 log-fold
same,log-fold changes in CFU,"[5]; 24 h, 2 μg/mL",2.43 log-fold
same,log-fold changes in CFU,"[5]; 24 h, 8 μg/mL",2.43 log-fold
same,log-fold changes in CFU,"[5]; 24 h, 32 μg/mL",2.40 log-fold
same,log-fold changes in CFU,"[5]; 24 h, 128 μg/mL",1.79 log-fold
same,log-fold changes in CFU,"[5]; 48 h, 2 μg/mL",2.42 log-fold
same,log-fold changes in CFU,"[5]; 48 h, 8 μg/mL",2.45 log-fold
same,log-fold changes in CFU,"[5]; 48 h, 32 μg/mL",2.36 log-fold
same,log-fold changes in CFU,"[5]; 48 h, 128 μg/mL",2.35 log-fold
same,log-fold changes in CFU,"[5]; 72 h, 2 μg/mL",2.47 log-fold
same,log-fold changes in CFU,"[5]; 72 h, 8 μg/mL",2.19 log-fold
same,log-fold changes in CFU,"[5]; 72 h, 32 μg/mL",2.21 log-fold
same,log-fold changes in CFU,"[5]; 72 h, 128 μg/mL",2.30 log-fold
C[C@@H](c1ncncc1F)[C@](O)(Cn1cncn1)c1ccc(F)cc1F [Voriconazole],Susceptibility (CLSI),[1]; C. albicans R357,R
same,MIC,[1],> 64 mg/L
